Source: ChEMBL document CHEMBL1201862, “PubChem BioAssay data set” (2004)
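Where inhibition never reached the appropriate level, the endpoint shown equals the highest concentration tested. Otherwise, values were interpolated linearly from a five-concentration, 48-hour dose response in 96-well plates. Here, GI50 denotes the concentration required for 50% inhibition of growth.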 Calls of active or inactive are those of the source. Rule as the data show it: active = GI50 up to about 1.1 µM and inactive = higher.

Tests used:
Assay in all cases: NCI tumour cell line growth inhibition, 48 h
A549 = test system: A549
CCRF-CEM = test system: CCRF-CEM
HT-29 = test system: HT-29
M14 = test system: M14
MOLT-4 = test system: MOLT-4
NCI-H522 = test system: NCI-H522
OVCAR-4 = test system: OVCAR-4
OVCAR-5 = test system: OVCAR-5
RXF 393 = test system: RXF 393
SF-295 = test system: SF-295
SK-MEL-5 = test system: SK-MEL-5
SK-OV-3 = test system: SK-OV-3
SNB-19 = test system: SNB-19
SW-620 = test system: SW-620
UACC-257 = test system: UACC-257
HCT-116 = test system: HCT-116
HOP-62 = test system: HOP-62

Measured: GI50

O=C(O)[C@@H](NS(=O)(=O)c1ccc([N+](=O)[O-])cc1)c1ccccc1
inactive: A549 > 100 µM | CCRF-CEM > 100 µM | HT-29 > 100 µM | M14 > 100 µM | MOLT-4 > 100 µM | NCI-H522 73.6 µM | OVCAR-4 > 100 µM | OVCAR-5 > 100 µM | RXF 393 > 100 µM | SF-295 > 100 µM | SK-MEL-5 > 100 µM | SK-OV-3 > 100 µM | SNB-19 > 100 µM | SW-620 > 100 µM | UACC-257 > 100 µM

CC[P+](C)(C)CC
inactive: A549 > 100 µM | CCRF-CEM > 100 µM | HCT-116 > 100 µM | HOP-62 > 100 µM | HT-29 > 100 µM | M14 > 100 µM | MOLT-4 > 100 µM | OVCAR-4 > 100 µM | OVCAR-5 > 100 µM | RXF 393 > 100 µM | SF-295 > 100 µM | SK-MEL-5 > 100 µM | SK-OV-3 > 100 µM | SNB-19 > 100 µM | SW-620 > 100 µM | UACC-257 > 100 µM

CC(C)=C1CCC(CN2CCCC2)C1=O (centres undefined)
inactive: A549 > 100 µM | CCRF-CEM 17.7 µM | HCT-116 17.7 µM | HOP-62 > 100 µM | HT-29 22.8 µM | M14 19.2 µM | MOLT-4 21.9 µM | OVCAR-4 17.1 µM | OVCAR-5 94.6 µM | RXF 393 21.4 µM | SF-295 > 100 µM | SK-MEL-5 > 100 µM | SNB-19 > 100 µM | SW-620 22.1 µM | UACC-257 24.7 µM

Cc1cn(C2CC(O)C(CO)O2)c(=O)n2nnnc12 (centres undefined)
inactive: A549 > 100 µM | CCRF-CEM > 100 µM | HCT-116 > 100 µM | HOP-62 > 100 µM | HT-29 > 100 µM | M14 > 100 µM | MOLT-4 > 100 µM | NCI-H522 > 100 µM | OVCAR-4 > 100 µM | OVCAR-5 > 100 µM | SF-295 > 100 µM | SK-MEL-5 > 100 µM | SK-OV-3 > 100 µM | SNB-19 > 100 µM | SW-620 > 100 µM | UACC-257 > 100 µM

COc1c(C)c2c(c(C)c1Cl)Oc1c(C=O)c(O)c(Cl)c(C)c1C(=O)O2
inactive: A549 33.7 µM | CCRF-CEM 20.3 µM | HCT-116 23 µM | HOP-62 24.3 µM | HT-29 36.9 µM | M14 20.9 µM | MOLT-4 20.6 µM | NCI-H522 22.7 µM | OVCAR-5 28.1 µM | SF-295 30.9 µM | SK-MEL-5 95.7 µM | SK-OV-3 33.2 µM | SW-620 43.8 µM | UACC-257 31.4 µM

Cc1cc([N+](=O)[O-])c(C)c2c1[nH]c1ccc(/C(CCC3CCCC3)=N\N)cc12
inactive: A549 17.6 µM | CCRF-CEM 10.4 µM | HCT-116 9.89 µM | HOP-62 18.4 µM | HT-29 24 µM | M14 17.6 µM | MOLT-4 11.9 µM | NCI-H522 16.4 µM | OVCAR-4 27.4 µM | OVCAR-5 > 10 µM | SF-295 18.8 µM | SK-MEL-5 18.2 µM | SNB-19 17.7 µM | SW-620 16.5 µM | UACC-257 20 µM

CCOC(=O)C(=O)Nc1ccccc1C(F)(F)F
inactive: A549 > 100 µM | HCT-116 > 100 µM | HOP-62 > 100 µM | HT-29 > 100 µM | M14 > 100 µM | OVCAR-4 > 100 µM | OVCAR-5 > 100 µM | RXF 393 > 100 µM | SF-295 > 100 µM | SK-OV-3 > 100 µM | SNB-19 > 100 µM | SW-620 > 100 µM | UACC-257 > 100 µM

O=C(O)/C(=C/c1ccccc1[N+](=O)[O-])c1cccs1
inactive: A549 > 100 µM | HCT-116 > 100 µM | HOP-62 > 100 µM | HT-29 > 100 µM | M14 > 100 µM | MOLT-4 > 100 µM | NCI-H522 > 100 µM | OVCAR-4 > 100 µM | OVCAR-5 > 100 µM | SF-295 > 100 µM | SK-MEL-5 > 100 µM | SK-OV-3 > 100 µM | SNB-19 > 100 µM | SW-620 > 100 µM | UACC-257 > 100 µM

CC12CC(Sc3ccccc3N1)c1ccccc1O2 (centres undefined)
inactive: A549 18.8 µM | CCRF-CEM 12.1 µM | HCT-116 15.2 µM | HOP-62 19.6 µM | HT-29 19.7 µM | M14 18.3 µM | MOLT-4 16.6 µM | OVCAR-4 17 µM | OVCAR-5 19 µM | RXF 393 15.9 µM | SF-295 16 µM | SK-MEL-5 14.8 µM | SK-OV-3 33.7 µM | SNB-19 15.2 µM | SW-620 17.7 µM | UACC-257 14.5 µM

O=C1/C=C(/c2ccc(O)cc2)[C@@H](OC2OC(CO)C(O)C(O)C2O)Cc2ccc(O)cc2O1.O=C1/C=C(/c2ccc(O)cc2)[C@H](O)Cc2ccc(O[C@@H]3OC(CO)C(O)C(O)C3O)cc2O1 (some centres undefined)
inactive: A549 > 100 µM | HCT-116 > 100 µM | HOP-62 > 100 µM | HT-29 > 100 µM | M14 > 100 µM | NCI-H522 > 100 µM | OVCAR-4 > 100 µM | OVCAR-5 > 100 µM | SF-295 > 100 µM | SK-MEL-5 > 100 µM | SK-OV-3 > 100 µM | SNB-19 > 100 µM | SW-620 > 100 µM | UACC-257 > 100 µM
